According to patent publication US8802597B2, “Herbicidal pyrimidines” (E I du Pont de Nemours and Company, priority 2003, dated 2014):

Columns and labels:
[1] = test system: Italian ryegrass (Lolium multiflorum); test: Test C postemergence; format: in vivo; conditions: for Plant response rating, Ryegrass, Italian: 250 g ai/ha, scale 0 to 100; for pest or weed control at 125 g/ha: 125 g ai/ha
In short: (§1)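 Percent control is a visual rating (0 none, 100 complete) taken against untreated plants after 12 to 14 days of greenhouse growth. Applications were made preemergence to seeded pots and postemergence to plants at the 1- to 4-leaf stage, in a non-phytotoxic surfactant-containing solvent.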

[2] = test system: canarygrass (Phalaris minor); test: Test C postemergence; format: in vivo; conditions: for Plant response rating, Canarygrass: scale 0 to 100
In short: as §1

[3] = test system: wheat (Triticum aestivum); test: Test C postemergence; format: in vivo; conditions: for Plant response rating, Wheat: 250 g ai/ha, scale 0 to 100; for plant injury at 125 g/ha: 125 g ai/ha
In short: as §1

[4] = test system: windgrass (Apera spica-venti); test: Test C postemergence; format: in vivo; conditions: for Plant response rating, Windgrass: 250 g ai/ha, scale 0 to 100; for pest or weed control at 125 g/ha: 125 g ai/ha
In short: as §1

[5] = test system: downy brome (Bromus tectorum); test: Test C postemergence; format: in vivo; conditions: for Plant response rating, Bromegrass, Downy: scale 0 to 100
In short: as §1

[6] = test system: green foxtail (Setaria viridis); test: Test C postemergence; format: in vivo; conditions: for Plant response rating, Foxtail, Green: 250 g ai/ha, scale 0 to 100; for pest or weed control at 125 g/ha: 125 g ai/ha
In short: as §1

[7] = test system: winter barley (Hordeum vulgare); test: Test C postemergence; format: in vivo; conditions: for Plant response rating (scale of 0 to 100), Barley: 31 g ai/ha; for Plant response rating, Barley: scale 0 to 100; for plant injury at 62 g/ha: 62 g ai/ha
In short: as §1

[8] = test system: blackgrass (Alopecurus myosuroides); test: Test C postemergence; format: in vivo; conditions: for Plant response rating, Blackgrass: scale 0 to 100
In short: as §1

[9] = test system: late watergrass (Echinochloa oryzicola); test: Test E flooded paddy water application; format: in vivo; conditions: Flood, 21 days, scale 0 to 100 (0 no effect, 100 complete control)
In short: (§2)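 Weeds sown in sterilized Tama silt loam (2.6% organic matter), greenhouse 29.5/26.7° C, 16-h photoperiod; at 2.0–2.5-leaf stage pots flooded to 3 cm and compound added to paddy water. Visual rating vs untreated controls after 21 days, 0 (no effect) to 100 (complete control).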

[10] = test system: water seeded rice seedlings (Oryza sativa cv. ‘Japonica-M202’); test: Test E flooded paddy water application; format: in vivo; conditions: Flood, 21 days, scale 0 to 100 (0 no effect, 100 complete control)
In short: as §2

[11] = test system: rice flatsedge (Cyperus iria); test: Test E flooded paddy water application; format: in vivo; conditions: Flood, 21 days, scale 0 to 100 (0 no effect, 100 complete control)
In short: as §2

[12] = Lolium multiflorum, post-emergence, scale 0 to 100 (0 no effect, 100 complete control), read-out: Ryegrass, Italian plant response rating
[13] = Triticum aestivum, post-emergence, scale 0 to 100 (0 no effect, 100 complete control), read-out: Wheat plant response rating
[14] = Apera spica-venti, post-emergence, scale 0 to 100 (0 no effect, 100 complete control), read-out: Windgrass plant response rating
[15] = Setaria viridis, post-emergence, scale 0 to 100 (0 no effect, 100 complete control), read-out: Foxtail, Green plant response rating
[16] = Hordeum vulgare, post-emergence, scale 0 to 100 (0 no effect, 100 complete control), read-out: Barley plant response rating

| Compound | melting point | Plant response rating (scale of 0 to 100), Ryegrass, Italian ([1]; 31 g ai/ha) | Plant response rating, Ryegrass, Italian [1] | pest or weed control at 125 g/ha [1, 12] [%] | Plant response rating (scale of 0 to 100), Canarygrass ([2]; 31 g ai/ha) | Plant response rating, Canarygrass ([2]; 250 g ai/ha) | Plant response rating (scale of 0 to 100), Wheat ([3]; 31 g ai/ha) | Plant response rating, Wheat [3] | plant injury at 125 g/ha [3, 13] [%] | Plant response rating (scale of 0 to 100), Windgrass ([4]; 31 g ai/ha) | Plant response rating, Windgrass [4] | pest or weed control at 125 g/ha [4, 14] [%] | Plant response rating (scale of 0 to 100), Bromegrass, Downy ([5]; 31 g ai/ha) | Plant response rating, Bromegrass, Downy ([5]; 250 g ai/ha) | Plant response rating (scale of 0 to 100), Foxtail, Green ([6]; 31 g ai/ha) | Plant response rating, Foxtail, Green [6] | pest or weed control at 125 g/ha [6, 15] [%] | Plant response rating (scale of 0 to 100), Barley [7] | Plant response rating, Barley ([7]; 250 g ai/ha) | plant injury at 62 g/ha [7, 16] [%] | other results |
| --- | --- | --- | --- | --- | --- | --- | --- | --- | --- | --- | --- | --- | --- | --- | --- | --- | --- | --- | --- | --- | --- |
| Nc1nc(C2CC2)nc(C(=O)OCc2ccccc2)c1Cl [Compound 78, phenylmethyl 6-amino-5-chloro-2-cyclopropyl-4-pyrimidinecarboxylate] | 126 to 128 °C | 0 | 25 | 20 | 0 | 0 | 20 | 55 | 30 | 5 | 40 | 30 | 5 | 55 | 25 | 75 | 70 | 5 | 90 | 5 | Plant response rating (scale of 0 to 100), Ryegrass, Italian ([1]; 62 g ai/ha): 10; Plant response rating (scale of 0 to 100), Canarygrass ([2]; 62 g ai/ha): 0; pest or weed control at 125 g/ha ([2]; Phalaris minor, post-emergence, 125 g ai/ha, scale 0 to 100 (0 no effect, 100 complete control), read-out: Canarygrass plant response rating): 0%; Plant response rating (scale of 0 to 100), Wheat ([3]; 62 g ai/ha): 20; Plant response rating (scale of 0 to 100), Windgrass ([4]; 62 g ai/ha): 30; Plant response rating (scale of 0 to 100), Bromegrass, Downy ([5]; 62 g ai/ha): 10; pest or weed control at 125 g/ha ([5]; Bromus tectorum, post-emergence, 125 g ai/ha, scale 0 to 100 (0 no effect, 100 complete control), read-out: Bromegrass, Downy plant response rating): 15%; Plant response rating (scale of 0 to 100), Foxtail, Green ([6]; 62 g ai/ha): 40; plant injury at 125 g/ha ([7]; Hordeum vulgare, post-emergence, 125 g ai/ha, scale 0 to 100 (0 no effect, 100 complete control), read-out: Barley plant response rating): 30%; Plant response rating (scale of 0 to 100), Blackgrass ([8]; 31 g ai/ha): 0; Plant response rating (scale of 0 to 100), Blackgrass ([8]; 62 g ai/ha): 5; Plant response rating, Blackgrass ([8]; 250 g ai/ha): 50; pest or weed control at 125 g/ha ([8]; Alopecurus myosuroides, post-emergence, 125 g ai/ha, scale 0 to 100 (0 no effect, 100 complete control), read-out: Blackgrass plant response rating): 5% |
| Nc1nc(-c2ccc(Br)cc2)nc(C(=O)O)c1Cl [Compound 95, 6-amino-2-(4-bromophenyl)-5-chloro-4-pyrimidinecarboxylic acid] | 157 to 158 °C (dec.) |  |  |  |  |  |  |  |  |  |  |  |  |  |  |  |  |  |  |  | Watergrass, Late plant response rating ([9]; 32 g ai/ha): 0; Watergrass, Late plant response rating ([9]; 64 g ai/ha): 0; Watergrass, Late plant response rating ([9]; 125 g ai/ha): 0; Watergrass, Late plant response rating ([9]; 250 g ai/ha): 0; Plant response rating, Watergrass, Late ([9]; 16 g ai/ha): 0; Rice, Water Seeded plant response rating ([10]; 32 g ai/ha): 0; Rice, Water Seeded plant response rating ([10]; 64 g ai/ha): 0; Rice, Water Seeded plant response rating ([10]; 125 g ai/ha): 0; Rice, Water Seeded plant response rating ([10]; 250 g ai/ha): 15; Plant response rating, Rice, Water Seeded ([10]; 16 g ai/ha): 0; Flatsedge, Rice plant response rating ([11]; 32 g ai/ha): 0; Flatsedge, Rice plant response rating ([11]; 64 g ai/ha): 0; Flatsedge, Rice plant response rating ([11]; 125 g ai/ha): 0; Flatsedge, Rice plant response rating ([11]; 250 g ai/ha): 0; Plant response rating, Flatsedge, Rice ([11]; 16 g ai/ha): 0 |
| COC(=O)c1nc(C(C)C)nc(N)c1Br [Compound 3] | 107 to 109 °C | 35 | 35 | 35 | 10 | 10 | 0 | 10 | 0 | 10 | 30 | 30 | 20 | 20 | 20 | 35 | 35 | 0 | 30 | 0 | pest or weed control at 62 g/ha ([1]; Lolium multiflorum, post-emergence, 62 g ai/ha, scale 0 to 100 (0 no effect, 100 complete control), read-out: Ryegrass, Italian plant response rating): 35%; Plant response rating, Canarygrass ([2]; 125 g ai/ha): 10; pest or weed control at 62 g/ha ([2]; Phalaris minor, post-emergence, 62 g ai/ha, scale 0 to 100 (0 no effect, 100 complete control), read-out: Canarygrass plant response rating): 10%; plant injury at 62 g/ha ([3]; Triticum aestivum, post-emergence, 62 g ai/ha, scale 0 to 100 (0 no effect, 100 complete control), read-out: Wheat plant response rating): 0%; pest or weed control at 62 g/ha ([4]; Apera spica-venti, post-emergence, 62 g ai/ha, scale 0 to 100 (0 no effect, 100 complete control), read-out: Windgrass plant response rating): 30%; Plant response rating, Bromegrass, Downy ([5]; 125 g ai/ha): 20; pest or weed control at 62 g/ha ([5]; Bromus tectorum, post-emergence, 62 g ai/ha, scale 0 to 100 (0 no effect, 100 complete control), read-out: Bromegrass, Downy plant response rating): 20%; pest or weed control at 62 g/ha ([6]; Setaria viridis, post-emergence, 62 g ai/ha, scale 0 to 100 (0 no effect, 100 complete control), read-out: Foxtail, Green plant response rating): 30%; Plant response rating, Barley ([7]; 125 g ai/ha): 0; Plant response rating (scale of 0 to 100), Blackgrass ([8]; 31 g ai/ha): 0; Plant response rating, Blackgrass ([8]; 125 g ai/ha): 0; Plant response rating, Blackgrass ([8]; 250 g ai/ha): 0; pest or weed control at 62 g/ha ([8]; Alopecurus myosuroides, post-emergence, 62 g ai/ha, scale 0 to 100 (0 no effect, 100 complete control), read-out: Blackgrass plant response rating): 0% |
